# US20240116845A1, “INDENE COMPOUNDS, PHARMACEUTICAL COMPOSITIONS THEREOF, AND THEIR THERAPEUTIC APPLICATIONS” (NucMito Pharmaceuticals Co., Ltd., priority 2021, published 2024)
# Key:
# Type in all cases: cell-based
# [1] = tested on: alpha-smooth muscle actin (α-SMA); experiment: Inhibition of TGF-β induced expression of alpha-smooth muscle actin in CFSC cells (western blot); conditions: compound at 10 μM, TGF-β (10 ng/mL), 24 hours
# Procedure, shortened: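 Read-out is percent decrease in α-SMA western-blot band intensity, β-actin also probed, relative to TGF-β-only cells. CFSC cells were co-treated for 24 h at 37 °C with 10 ng/mL TGF-β and 10 μM compound in serum-free DMEM.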
# HeLa (cervical cancer) = experiment: Antiproliferative activity, CCK-8 cell viability; conditions: Homo sapiens, 72 h, read-out: Inhibition of Cancerous Cells, HELA; for inhibition at 3.3 µM: compound concentration of 3.3 μM; for inhibition at 10 µM: compound concentration of 10 μM; for inhibition at 30 µM: compound concentration of 30 μM
# SW480 (colon cancer) = experiment: Antiproliferative activity, CCK-8 cell viability; conditions: Homo sapiens, 72 h, read-out: Inhibition of Cancerous Cells, SW480; for inhibition at 3.3 µM: compound concentration of 3.3 μM; for inhibition at 10 µM: compound concentration of 10 μM; for inhibition at 30 µM: compound concentration of 30 μM
# Procedure, shortened: (§1)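 Viability relative to DMSO controls came from CCK-8 absorbance at 450 nm after 72 h exposure at 37°C. Compound concentrations were 3.3, 10 or 30 μM, in DMEM plus 10% FBS. Results are categorised by inhibition level: at least 50%, 30 to under 50%, or under 30%.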
# HepG2 (liver cancer) = experiment: Antiproliferative activity, CCK-8 cell viability; conditions: Homo sapiens, 72 h, read-out: Inhibition of Cancerous Cells, HepG2; for inhibition at 3.3 µM: compound concentration of 3.3 μM; for inhibition at 10 µM: compound concentration of 10 μM; for inhibition at 30 µM: compound concentration of 30 μM
# Procedure, shortened: as §1
# [2] = tested on: A431 (epidermoid carcinoma); experiment: Antiproliferative activity, CCK-8 cell viability; conditions: Homo sapiens, A-431, 72 h, read-out: Inhibition of Cancerous Cells, A431; for inhibition at 3.3 µM: compound concentration of 3.3 μM; for inhibition at 10 µM: compound concentration of 10 μM; for inhibition at 30 µM: compound concentration of 30 μM
# Procedure, shortened: as §1
# [3] = tested on: B16F10 (malignant melanoma); experiment: Antiproliferative activity, CCK-8 cell viability; conditions: Mus musculus, B16-F10, 72 h, read-out: Inhibition of Cancerous Cells, B16F10; for inhibition at 3.3 µM: compound concentration of 3.3 μM; for inhibition at 10 µM: compound concentration of 10 μM; for inhibition at 30 µM: compound concentration of 30 μM
# Procedure, shortened: as §1
# [4] = tested on: MDA-MB-231 (breast cancer); experiment: Antiproliferative activity, CCK-8 cell viability; conditions: Homo sapiens, 72 h, read-out: Inhibition of Cancerous Cells, MDA-MB-231; for inhibition at 3.3 µM: compound concentration of 3.3 μM; for inhibition at 10 µM: compound concentration of 10 μM; for inhibition at 30 µM: compound concentration of 30 μM
# Procedure, shortened: as §1
# [5] = tested on: A549 (lung adenocarcinoma); experiment: Antiproliferative activity, CCK-8 cell viability; conditions: Homo sapiens, 72 h, read-out: Inhibition of Cancerous Cells, A549; for inhibition at 3.3 µM: compound concentration of 3.3 μM; for inhibition at 10 µM: compound concentration of 10 μM; for inhibition at 30 µM: compound concentration of 30 μM
Compound,inhibition at 10 µM [1] [%],inhibition at 3.3 µM (HeLa (cervical cancer)) [%],inhibition at 10 µM (HeLa (cervical cancer)) [%],inhibition at 30 µM (HeLa (cervical cancer)) [%],inhibition at 3.3 µM (SW480 (colon cancer)) [%],inhibition at 10 µM (SW480 (colon cancer)) [%],inhibition at 30 µM (SW480 (colon cancer)) [%],inhibition at 3.3 µM (HepG2 (liver cancer)) [%],inhibition at 10 µM (HepG2 (liver cancer)) [%],inhibition at 30 µM (HepG2 (liver cancer)) [%],inhibition at 3.3 µM [2] [%],inhibition at 10 µM [2] [%],inhibition at 30 µM [2] [%],inhibition at 3.3 µM [3] [%],inhibition at 10 µM [3] [%],inhibition at 30 µM [3] [%],inhibition at 3.3 µM [4] [%],inhibition at 10 µM [4] [%],inhibition at 30 µM [4] [%],inhibition at 3.3 µM [5] [%],other results
"CC1=C(CC(=O)O)c2cc(F)ccc2/C1=C\c1ccc(CN(C)c2ccccc2)cc1 [Compound A9, 2-[(1Z)-5-Fluoro-2-methyl-1-[(4-{[methyl(phenyl)amino]methyl}phenyl)-methylidene]-1H-inden-3-yl]acetic acid]",≥ 80,< 30,30 to 50,≥ 50,≥ 50,≥ 50,≥ 50,< 30,< 30,≥ 50,< 30,≥ 50,≥ 50,≥ 50,≥ 50,≥ 50,30 to 50,≥ 50,≥ 50,≥ 50,inhibition at 10 µM [5]: ≥ 50%; inhibition at 30 µM [5]: ≥ 50%
"CC1=C(CC(=O)O)c2cc(F)ccc2/C1=C\c1ccc(CN(Cc2ccccc2)c2ccccc2)cc1 [Compound A10, 2-[(1Z)-1-[(4-{[Benzyl(phenyl)amino]methyl}phenyl)methylidene]-5-fluoro-2-methyl-1H-inden-3-yl]acetic acid]",≥ 80,≥ 50,≥ 50,≥ 50,≥ 50,≥ 50,≥ 50,≥ 50,≥ 50,≥ 50,≥ 50,≥ 50,≥ 50,< 30,≥ 50,≥ 50,≥ 50,≥ 50,≥ 50,30 to 50,inhibition at 10 µM [5]: ≥ 50%; inhibition at 30 µM [5]: ≥ 50%
COc1cccc2c1C(CC(=O)O)=C(C)/C2=C/c1ccc(COc2ccccc2)cc1 [Compound A11],< 30,< 30,< 30,< 30,≥ 50,≥ 50,≥ 50,30 to 50,≥ 50,≥ 50,≥ 50,≥ 50,≥ 50,≥ 50,≥ 50,≥ 50,< 30,30 to 50,≥ 50,30 to 50,inhibition at 10 µM [5]: 30 to 50%; inhibition at 30 µM [5]: 30 to 50%
"COc1ccc2c(c1)/C(=C\c1ccc(COc3ccccc3)cc1)C(C)=C2CC(=O)O [Compound A12, (Z)-2-(6-Methoxy-2-methyl-1-(4-(phenoxymethyl)benzylidene)-1H-inden-3-yl)acetic acid]",≥ 80,30 to 50,≥ 50,≥ 50,≥ 50,≥ 50,≥ 50,30 to 50,30 to 50,≥ 50,< 30,< 30,≥ 50,≥ 50,≥ 50,≥ 50,< 30,30 to 50,≥ 50,30 to 50,inhibition at 10 µM [5]: ≥ 50%; inhibition at 30 µM [5]: ≥ 50%
"COc1ccc2c(c1)/C(=C\c1ccc(CN(C)c3ccccc3)cc1)C(C)=C2CC(=O)O [Compound A13, 2-[(1Z)-6-Methoxy-2-methyl-1-[(4-{[methyl(phenyl)amino]methyl}phenyl)-methylidene]-1H-inden-3-yl]acetic acid]",≥ 80,< 30,30 to 50,≥ 50,≥ 50,30 to 50,≥ 50,≥ 50,≥ 50,≥ 50,≥ 50,≥ 50,≥ 50,< 30,30 to 50,≥ 50,< 30,30 to 50,≥ 50,30 to 50,inhibition at 10 µM [5]: 30 to 50%; inhibition at 30 µM [5]: ≥ 50%
"CC1=C(CC(=O)O)c2cc(F)ccc2/C1=C\c1ccc(COc2ccc(F)cc2F)cc1 [Compound A15, 2-[(1Z)-1-({4-[(2,4-Difluorophenoxy)methyl]phenyl}methylidene)-5-fluoro-2-methyl-1H-inden-3-yl]acetic acid]",≥ 80,30 to 50,≥ 50,≥ 50,≥ 50,≥ 50,≥ 50,≥ 50,≥ 50,≥ 50,< 30,< 30,≥ 50,≥ 50,≥ 50,≥ 50,≥ 50,≥ 50,≥ 50,30 to 50,inhibition at 10 µM [5]: ≥ 50%; inhibition at 30 µM [5]: ≥ 50%
"CC1=C(CC(=O)O)c2cc(F)ccc2/C1=C\c1cccc(CN(C)c2ccccc2)c1 [Compound A16, 2-[(1Z)-5-Fluoro-2-methyl-1-[(3-{[methyl(phenyl)amino]methyl}phenyl)-methylidene]-1H-inden-3-yl]acetic acid]",≥ 80,30 to 50,≥ 50,≥ 50,≥ 50,≥ 50,≥ 50,< 30,30 to 50,≥ 50,< 30,≥ 50,≥ 50,< 30,< 30,≥ 50,30 to 50,≥ 50,≥ 50,30 to 50,inhibition at 10 µM [5]: ≥ 50%; inhibition at 30 µM [5]: ≥ 50%
"CC1=C(CC(=O)O)c2cc(F)ccc2/C1=C\c1cccc(CCc2ccccc2)c1 [Compound A17, 2-[(1Z)-5-Fluoro-2-methyl-1-{[3-(2-phenylethyl)phenyl]methylidene}-1H-inden-3-yl]acetic acid]",< 30,30 to 50,≥ 50,≥ 50,≥ 50,≥ 50,≥ 50,≥ 50,≥ 50,≥ 50,< 30,≥ 50,≥ 50,30 to 50,≥ 50,≥ 50,≥ 50,≥ 50,≥ 50,≥ 50,inhibition at 10 µM [5]: ≥ 50%; inhibition at 30 µM [5]: ≥ 50%
